Test results taken from US7534418B2, “Imaging agents” (The Regents of the University of Michigan, priority 2004, dated 2009).
“Also recorded” adds a separate entry of the source.

Tested on: cardiac sympathetic neurons of the isolated rat heart
Assay: Kinetics of [11C]phenethylguanidines in isolated perfused working rat heart (neuronal uptake and clearance)
Details: for Major Clearance Rate T1/2 / half-life: rat
Source text: To evaluate radiolabeled phenethylguanidines as imaging agents for nuclear medicine, several [^11C]-labeled phenethylguanidines were synthesized and initial bioevaluations of these compounds performed using an isolated rat heart preparation. […] [^11C]-labeling was used to initially assess the imaging properties of these compounds for the following reasons. A radiosynthetic method for making [^11C]guanidines (see, e.g., Westerberg, G. and Langstrom, B. (1997) J. Labeled Compds. Radiopharm. 39:525-529; herein incorporated by reference in its entirety), allowed efficient synthesis and evaluation of these compounds.
The present invention is not limited to a particular mechanism. Indeed, an understanding of the mechanism is not necessary to practice the present invention. […] Provided below is a detailed description of how these specific kinetic properties offer a significant advantage over currently available sympathetic nerve radiotracers.

Compound: N=[11C](N)NCCc1cccc(F)c1 [II-1, [^11C]meta-fluorophenethylguanidine]
- Neuronal Uptake Rate Kup (isolated rat heart): 0.24 mL/min/g
- Major Clearance Rate T1/2: 1.93 h

Compound: N=[11C](N)NCCc1ccc(F)cc1 [II-2, [^11C]para-fluorophenethylguanidine]
- Neuronal Uptake Rate Kup (isolated rat heart): 0.63 mL/min/g
- Major Clearance Rate T1/2: 4.43 h

Compound: N=[11C](N)NCCc1ccccc1F [II-3, [^11C]ortho-fluorophenethylguanidine]
- Neuronal Uptake Rate Kup (isolated rat heart): 1.76 mL/min/g
- Major Clearance Rate T1/2: 2.25 h

Compound: N=[11C](N)NCCc1ccc(O)cc1 [I-5, [^11C]para-hydroxyphenethylguanidine]
- Neuronal Uptake Rate Kup (isolated rat heart): 1.92 mL/min/g
- neuronal retention / clearance (in words) (isolated rat heart): efficient vesicular storage; also recorded: very long retention times
- neuronal uptake rate (in words) (isolated rat heart): fast and rapid
- neuronal retention / clearance (in words) (isolated rat heart, listed as PHPG): well retained
- Major Clearance Rate T1/2: 48.13 h

Compound: N=[11C](N)NCCc1cccc(I)c1 [III-1, [^11C]meta-iodophenethylguanidine]
- Neuronal Uptake Rate Kup (isolated rat heart): 1.10 mL/min/g
- neuronal retention / clearance (in words) (isolated rat heart): approximately the same rate as MIBG
- neuronal uptake rate, times slower than MIBG (isolated rat heart, relative to MIBG): around 3 times
- Major Clearance Rate T1/2: 2.38 h

Compound: COc1ccc(CCN[11C](=N)N)cc1 [I-3, [^11C]para-methoxy-phenethylguanidine]
- Neuronal Uptake Rate Kup (isolated rat heart): 0.73 mL/min/g
- Major Clearance Rate T1/2: 2.28 h

Compound: N=[11C](N)NC[C@H](O)c1ccc(O)c(O)c1 [I-8, N-[^11C]guanyl-norepinephrine]
- Neuronal Uptake Rate Kup (isolated rat heart): 0.09 mL/min/g

Compound: C[C@H](N[11C](=N)N)[C@H](O)c1cccc(O)c1 [I-9, N-[^11C]guanyl-(−)-metaraminol]
- Neuronal Uptake Rate Kup (isolated rat heart): 0.08 mL/min/g
- neuronal retention / clearance (in words) (isolated rat heart): very long neuronal retention times
- neuronal uptake rate (in words) (isolated rat heart): slow and slower than all currently used tracers
- Major Clearance Rate T1/2: 20.18 h

Compound: N=[11C](N)NC[C@H](O)c1ccccc1 [I-2, [^11C](−)-β-hydroxyphenethylguanidine]
- Neuronal Uptake Rate Kup (isolated rat heart): 0.42 mL/min/g
- Major Clearance Rate T1/2: 19.3 h

Compound: CNC[C@H](O)c1ccc(O)c(O)c1 [EPI, [^11C]epinephrine, reference compound]
- Neuronal Uptake Rate Kup (isolated rat heart): 0.60 mL/min/g
- half-life: 26.3 h

Compound: C[C@H](N[11CH3])[C@H](O)c1cccc(O)c1 [HED, [^11C]meta-hydroxyephedrine, reference compound]
- Neuronal Uptake Rate Kup (isolated rat heart): 2.35 mL/min/g

Compound: N=[11C](N)NCCc1ccc(O)c(O)c1 [I-6, [^11C]3,4-dihydroxyphenethylguanidine]
- Neuronal Uptake Rate Kup (isolated rat heart): 1.07 mL/min/g
- Major Clearance Rate T1/2: 23.52 h

Compound: N=[11C](N)NCCc1cccc(O)c1 [I-4, [^11C]meta-hydroxyphenethylguanidine]
- Neuronal Uptake Rate Kup (isolated rat heart): 2.12 mL/min/g
- neuronal retention / clearance (in words) (isolated rat heart): efficient vesicular storage; also recorded: very long retention times
- neuronal uptake rate (in words) (isolated rat heart): fast and rapid
- Major Clearance Rate T1/2: trapped

Compound: CNC[C@H](O)c1cccc(O)c1 [PHEN, [^11C]phenylephrine, reference compound]
- Neuronal Uptake Rate Kup (isolated rat heart): 0.72 mL/min/g
- half-life: 1.63 h

Compound: 2-[^18F]fluoro-2-deoxy-D-glucose [FDG, reference compound]
- myocardial uptake rate (isolated rat heart, 10 mM glucose, no insulin, 10 min constant infusion, FIG. 5): 0.31 ml/min/g wet

Compound: NC(N)=NCc1cccc(I)c1 [MIBG, [^11C]meta-iodobenzylguanidine, reference compound]
- Neuronal Uptake Rate Kup (isolated rat heart): 3.65 mL/min/g
- neuronal uptake rate (in words) (isolated rat heart): very rapid

Compound: N=[11C](N)NCCc1ccc(F)c(O)c1 [II-4, [^11C]para-fluoro-meta-hydroxy-phenethylguanidine]
- Neuronal Uptake Rate Kup (isolated rat heart): 0.77 mL/min/g
- neuronal retention / clearance (in words) (isolated rat heart): very long neuronal retention times
- Major Clearance Rate T1/2: trapped

Compound: N=[11C](N)NCCc1cc(O)ccc1F [II-5, [^11C]ortho-fluoro-meta-hydroxy-phenethylguanidine]
- Neuronal Uptake Rate Kup (isolated rat heart): 0.54 mL/min/g
- neuronal retention / clearance (in words) (isolated rat heart): very long neuronal retention times
- Major Clearance Rate T1/2: 20.12 h

Compound: N=[11C](N)NCC(O)c1cccc(O)c1 (stereo not drawn) [I-7, N-[^11C]guanyl-meta-octopamine]
- Neuronal Uptake Rate Kup (isolated rat heart): 0.28 mL/min/g
- neuronal retention / clearance (in words) (isolated rat heart): very long neuronal retention times
- neuronal uptake rate (in words) (isolated rat heart): slow and slower than all currently used tracers
- neuronal uptake rate (isolated rat heart, 10 min constant infusion, FIG. 5): 0.28 ml/min/g wet
- neuronal retention / clearance (in words) (isolated rat heart, listed as GMO): well retained; also recorded: neuronal trapping of GMO is more efficient than the myocardial trapping of FDG
- Major Clearance Rate T1/2: 216.67 h

Compound: NC[C@H](O)c1ccc(O)c(O)c1 [NE, [^3H]norepinephrine, reference compound]
- Neuronal Uptake Rate Kup (isolated rat heart): 4.44 mL/min/g
- half-life: > 16.7 h

Compound: N=[11C](N)NCCc1ccccc1 [I-1, [^11C]phenethylguanidine]
- Neuronal Uptake Rate Kup (isolated rat heart): 1.56 mL/min/g
- Major Clearance Rate T1/2: 3.33 h
